Source: ChEMBL document CHEMBL1926642, “Relevance of the C-5 position to schweinfurthin induced cytotoxicity” (2011)

Columns and labels:
Format in all cases: functional
[1] = system: MOLT-4; test: Growth inhibition of human MOLT4 cells after 48 hrs by sulforhodamine B assay; details: MOLT-4, 48 h; for TGI: read-out: pTGI (converted)
[2] = system: HOP-92; test: Growth inhibition of human HOP92 cells after 48 hrs by sulforhodamine B assay; details: HOP-92, 48 h; for TGI: read-out: pTGI (converted)
[3] = system: HT-29; test: Growth inhibition of human HT-29 cells after 48 hrs by sulforhodamine B assay; details: HT-29, 48 h; for TGI: read-out: pTGI (converted)
[4] = system: SF-539; test: Growth inhibition of human SF539 cells after 48 hrs by sulforhodamine B assay; details: SF-539, 48 h; for TGI: read-out: pTGI (converted)
[5] = system: SNB-19; test: Growth inhibition of human SNB19 cells after 48 hrs by sulforhodamine B assay; details: SNB-19, 48 h; for TGI: read-out: pTGI (converted)
[6] = system: LOX IMVI; test: Growth inhibition of human LOXIMVI cells after 48 hrs by sulforhodamine B assay; details: for TGI: read-out: pTGI (converted)
[7] = system: Malme-3M; test: Growth inhibition of human MALME-3M cells after 48 hrs by sulforhodamine B assay; details: for TGI: read-out: pTGI (converted)
[8] = system: M14; test: Growth inhibition of human M14 cells after 48 hrs by sulforhodamine B assay; details: M14, 48 h; for TGI: read-out: pTGI (converted)
[9] = system: MDA-MB-435; test: Growth inhibition of human MDA-MB-435 cells after 48 hrs by sulforhodamine B assay; details: MDA-MB-435, 48 h; for TGI: read-out: pTGI (converted)
[10] = system: SK-MEL-2; test: Growth inhibition of human SK-MEL-2 cells after 48 hrs by sulforhodamine B assay; details: SK-MEL-2, 48 h; for TGI: read-out: pTGI (converted)
[11] = system: SK-MEL-5; test: Growth inhibition of human SK-MEL-5 cells after 48 hrs by sulforhodamine B assay; details: SK-MEL-5, 48 h; for TGI: read-out: pTGI (converted)
[12] = system: UACC-257; test: Growth inhibition of human UACC257 cells after 48 hrs by sulforhodamine B assay; details: UACC-257, 48 h; for TGI: read-out: pTGI (converted)
[13] = system: UACC-62; test: Growth inhibition of human UACC62 cells after 48 hrs by sulforhodamine B assay; details: UACC-62, 48 h; for TGI: read-out: pTGI (converted)
[14] = system: IGROV-1; test: Growth inhibition of human IGROV1 cells after 48 hrs by sulforhodamine B assay; details: IGROV-1, 48 h; for TGI: read-out: pTGI (converted)
[15] = system: OVCAR-3; test: Growth inhibition of human OVCAR3 cells after 48 hrs by sulforhodamine B assay; details: OVCAR-3, 48 h; for TGI: read-out: pTGI (converted)
[16] = system: OVCAR-4; test: Growth inhibition of human OVCAR4 cells after 48 hrs by sulforhodamine B assay; details: OVCAR-4, 48 h; for TGI: read-out: pTGI (converted)
[17] = system: OVCAR-8; test: Growth inhibition of human OVCAR8 cells after 48 hrs by sulforhodamine B assay; details: OVCAR-8, 48 h; for TGI: read-out: pTGI (converted)
[18] = system: NCI/ADR-RES; test: Growth inhibition of human NCI/ADR-RES cells after 48 hrs by sulforhodamine B assay; details: for TGI: read-out: pTGI (converted)
[19] = system: 786-0; test: Growth inhibition of human 786-0 cells after 48 hrs by sulforhodamine B assay; details: 786-0, 48 h; for CC50: read-out: pLC50 (the source's name) (converted); for TGI: read-out: pTGI (converted)
[20] = system: A498; test: Growth inhibition of human A498 cells after 48 hrs by sulforhodamine B assay; details: A498, 48 h; for TGI: read-out: pTGI (converted)
[21] = system: CAKI-1; test: Growth inhibition of human Caki1 cells after 48 hrs by sulforhodamine B assay; details: CAKI-1, 48 h; for TGI: read-out: pTGI (converted)
[22] = system: SN12C; test: Growth inhibition of human SN12C cells after 48 hrs by sulforhodamine B assay; details: for TGI: read-out: pTGI (converted)
[23] = system: TK-10; test: Growth inhibition of human TK10 cells after 48 hrs by sulforhodamine B assay; details: TK-10, 48 h; for TGI: read-out: pTGI (converted)
[24] = system: MCF7; test: Growth inhibition of human MCF7 cells after 48 hrs by sulforhodamine B assay; details: MCF7, 48 h
[25] = system: MDA-MB-231; test: Growth inhibition of human MDA-MB-231/ATCC cells after 48 hrs by sulforhodamine B assay; details: MDA-MB-231, 48 h; for CC50: read-out: pLC50 (the source's name) (converted); for TGI: read-out: pTGI (converted)
[26] = system: MDA-MB-468; test: Growth inhibition of human MDA-MB-468 cells after 48 hrs by sulforhodamine B assay; details: MDA-MB-468, 48 h; for TGI: read-out: pTGI (converted)
[27] = system: DU-145; test: Growth inhibition of human DU145 cells after 48 hrs by sulforhodamine B assay; details: DU-145, 48 h

Compound: COc1cc(/C=C/c2ccc3c(c2)C[C@@H]2C(C)(C)[C@H](O)CC[C@@]2(C)O3)cc(O)c1C/C=C(\C)CCC=C(C)C
- GI50 [1]: 5.01 µM
- LC50 [1]: > 100 µM
- TGI [1]: 38.9 µM
- GI50 [2]: 17.8 µM
- LC50 [2]: > 100 µM
- TGI [2]: 49 µM
- GI50 [3]: 1.95 µM
- LC50 (concentration killing 50% of cells) [3]: 23.4 µM
- TGI [3]: 5.01 µM
- GI50 [4]: 4.17 µM
- LC50 [4]: 57.5 µM
- TGI [4]: 17.4 µM
- GI50 [5]: 15.5 µM
- LC50 [5]: 91.2 µM
- TGI [5]: 37.2 µM
- GI50 [6]: 3.31 µM
- LC50 [6]: 37.2 µM
- TGI [6]: 11.5 µM
- GI50 [7]: 17.8 µM
- LC50 [7]: 91.2 µM
- TGI [7]: 40.7 µM
- GI50 [8]: 13.8 µM
- LC50 [8]: 56.2 µM
- TGI [8]: 27.5 µM
- GI50 [9]: 17.4 µM
- LC50 [9]: 81.3 µM
- TGI [9]: 38 µM
- GI50 [10]: 15.8 µM
- LC50 [10]: 81.3 µM
- TGI [10]: 35.5 µM
- GI50 [11]: 8.71 µM
- LC50 [11]: 49 µM
- TGI [11]: 21.4 µM
- GI50 [12]: 22.9 µM
- LC50 [12]: > 100 µM
- TGI [12]: 55 µM
- GI50 [13]: 12.9 µM
- LC50 (50% lethal concentration) [13]: 70.8 µM
- TGI [13]: 30.2 µM
- GI50 [14]: 14.5 µM
- LC50 [14]: 70.8 µM
- TGI [14]: 31.6 µM
- GI50 [15]: 17.4 µM
- LC50 [15]: 66.1 µM
- TGI [15]: 33.9 µM
- GI50 [16]: 20.9 µM
- LC50 [16]: > 100 µM
- TGI [16]: 83.2 µM
- GI50 [17]: 25.1 µM
- LC50 [17]: > 100 µM
- TGI [17]: 74.1 µM
- GI50 [18]: 21.4 µM
- LC50 [18]: > 100 µM
- TGI [18]: 51.3 µM
- GI50 [19]: 2.95 µM
- CC50 [19]: 42.7 µM
- TGI [19]: 12 µM
- GI50 [20]: 46.8 µM
- LC50 [20]: > 100 µM
- TGI [20]: > 100 µM
- GI50 [21]: 5.37 µM
- LC50 [21]: 67.6 µM
- TGI [21]: 20 µM
- GI50 [22]: 18.2 µM
- LC50 [22]: 70.8 µM
- TGI [22]: 36.3 µM
- GI50 [23]: 29.5 µM
- LC50 [23]: > 100 µM
- TGI [23]: 79.4 µM
- GI50 [24]: 16.6 µM
- LC50 [24]: 79.4 µM
- TGI ([24]; read-out: pTGI (converted)): 36.3 µM
- GI50 [25]: 10 µM
- CC50 [25]: 95.5 µM
- TGI [25]: 30.9 µM
- GI50 [26]: 11 µM
- LC50 [26]: 72.4 µM
- TGI [26]: 28.2 µM

Compound: COCOc1cc(/C=C/c2cc(CO)c3c(c2)C[C@@H]2C(C)(C)[C@H](O)CC[C@@]2(C)O3)cc(OC)c1C/C=C(\C)CCC=C(C)C
- GI50 [1]: 0.398 µM
- LC50 [1]: > 100 µM
- TGI [1]: > 100 µM
- GI50 [2]: 2.57 µM
- LC50 [2]: 45.7 µM
- TGI [2]: 16.6 µM
- GI50 [3]: 2.04 µM
- LC50 (concentration killing 50% of cells) [3]: > 100 µM
- TGI [3]: 19.1 µM
- GI50 [4]: 0.141 µM
- LC50 [4]: > 100 µM
- TGI [4]: 12.6 µM
- GI50 [5]: 11.2 µM
- LC50 [5]: 77.6 µM
- TGI [5]: 29.5 µM
- GI50 [6]: 0.55 µM
- LC50 [6]: 18.2 µM
- TGI [6]: 3.02 µM
- GI50 [7]: 11.7 µM
- LC50 [7]: > 100 µM
- TGI [7]: 67.6 µM
- GI50 [8]: 0.692 µM
- LC50 [8]: > 100 µM
- TGI [8]: 21.9 µM
- GI50 [9]: 1.38 µM
- LC50 [9]: > 100 µM
- TGI [9]: 56.2 µM
- GI50 [10]: 17.8 µM
- LC50 [10]: > 100 µM
- TGI [10]: 66.1 µM
- GI50 [11]: 2.24 µM
- LC50 [11]: 40.7 µM
- TGI [11]: 12.3 µM
- GI50 [12]: 3.47 µM
- LC50 [12]: > 100 µM
- TGI [12]: 39.8 µM
- GI50 [13]: 0.55 µM
- LC50 (50% lethal concentration) [13]: 57.5 µM
- TGI [13]: 10.7 µM
- GI50 [14]: 15.8 µM
- LC50 [14]: > 100 µM
- TGI [14]: > 100 µM
- GI50 [15]: 12.6 µM
- LC50 [15]: 60.3 µM
- TGI [15]: 27.5 µM
- GI50 [16]: 7.24 µM
- LC50 [16]: > 100 µM
- TGI [16]: 44.7 µM
- GI50 [17]: 11 µM
- LC50 [17]: 77.6 µM
- TGI [17]: 29.5 µM
- GI50 [18]: 8.13 µM
- LC50 [18]: 95.5 µM
- TGI [18]: 29.5 µM
- GI50 [19]: 0.158 µM
- CC50 [19]: 8.32 µM
- TGI [19]: 0.912 µM
- GI50 [20]: 0.933 µM
- LC50 [20]: 50.1 µM
- TGI [20]: 19.5 µM
- GI50 [21]: 0.813 µM
- LC50 [21]: > 100 µM
- TGI [21]: 15.1 µM
- GI50 [22]: 6.61 µM
- LC50 [22]: 58.9 µM
- TGI [22]: 22.4 µM
- GI50 [23]: 15.8 µM
- LC50 [23]: > 100 µM
- TGI [23]: 41.7 µM
- GI50 [27]: 3.8 µM
- LC50 [27]: 52.5 µM
- TGI ([27]; read-out: pTGI (converted)): 20 µM
- GI50 [25]: 1.62 µM
- CC50 [25]: 57.5 µM
- TGI [25]: 14.5 µM
- GI50 [26]: 1.78 µM
- LC50 [26]: 49 µM
- TGI [26]: 12.3 µM
